In PubChem BioAssay AID588698 (Southern Research Specialized Biocontainment Screening …, 2011):
Records with an inconclusive call do not appear. Active and inactive are the calls of the source.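 How the source made its calls: active means inhibition of 30% or more at any tested concentration; inactive means the rest, inconclusive results apart.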

Target: M1-family alanyl aminopeptidase (Plasmodium falciparum 3D7)
Experiment: PfM1AAP enzyme inhibition, dose response, selectivity assay for PfM17LAP inhibitor project, biochemical, QFRET, H-Leu-NHMec substrate (AID 588698)
Details: recombinant PfM1AAP, H-Leu-NHMec fluorogenic substrate cleavage

SMILES	IC50 [µM]
O=C(Cc1ccc2ccccc2c1)NO	33.7
O=C(Cc1cccc2ccccc12)NO	79.4

Same assay, conditions: recombinant PfM1AAP, H-Leu-NHMec fluorogenic substrate cleavage; at 100 µM (top of the series)

SMILES	inhibition
COC(=O)c1ccccc1NC(=O)c1cc2cc3ccc(C)cc3nc2s1	inactive
Cc1cc(=O)[nH]c(SCC(=O)Nc2ccccc2)n1	inactive
CCC(C)(C)C1CCc2c(sc(NC(=O)C3CC(C)=C(C)CC3C(=O)O)c2C(=O)OC)C1 (stereo not drawn)	inactive
COC(=O)c1cc(OC)c(OC)cc1NC(=O)c1sc2nc(C)ccc2c1N	inactive
COC(=O)c1c(NC(=O)C2CCCCC2C(=O)O)sc2c1CCC(c1ccccc1)C2 (stereo not drawn)	inactive
COc1cc(NC(=O)c2ccc(-c3ccccc3)cc2)c(C(=O)O)cc1OC	inactive
CC(C)C[C@H](N)C(=O)NO	inactive
COC(=O)c1c(NC(=O)c2ccccc2C(=O)O)sc2c1CCCC2	inactive
COC(=O)c1ccccc1NC(=O)c1ccc2c(Cl)c3c(nc2c1)CCC3	inactive
Cc1cc(SCC(=O)Nc2ccccc2C(=O)O)nc2ccccc12	inactive
Cc1ccc(NC(=O)CSc2nc(O)cc(=O)n2Cc2ccccc2)cc1	inactive
NC(N)=NCCC[C@H](N)C(=O)NO	inactive
O=C(CSc1nccc(=O)[nH]1)Nc1ccc(Oc2ccccc2)cc1	inactive
CC1=C(C)CC(C(=O)Nc2nc(-c3cc(C)ccc3C)c(C)s2)C(C(=O)O)C1 (stereo not drawn)	inactive
CC1CCc2sc(C(=O)Nc3cccc4c3C(=O)NC4)cc2C1 (stereo not drawn)	inactive
CCn1c2ccccc2c2cc(NC(=O)CSc3nc(C)cc(=O)[nH]3)ccc21	inactive
O=C1OCCC1Sc1nnc(NC2CCCCC2)s1 (stereo not drawn)	inactive
O=C(O)c1ccccc1C(=O)Nc1nc2c(s1)CCCC2	inactive
O=C(Nc1ccc(Cl)cc1)Nc1ccccc1C(=O)O	inactive
O=C(CSc1nccc(=O)[nH]1)Nc1ccc(N2CCOCC2)cc1	inactive
COc1ccc(OCCC(=O)NO)cc1	inactive
CC1=C(C)CC(C(=O)Nc2ccc(Oc3ccc(Cl)cc3)cc2)C(C(=O)O)C1 (stereo not drawn)	inactive
COc1cc(NC(=O)CSc2ccccc2)c(C(=O)O)cc1OC	inactive
O=C(CSc1nc(O)cc(=O)[nH]1)Nc1ccccc1	inactive
COC(=O)c1c(NC(=O)C2CC=CCC2C(=O)O)sc(C)c1-c1ccc(C)cc1 (stereo not drawn)	inactive
COc1ccc(-c2nnc(NC(=O)C3CC(C)=C(C)CC3C(=O)O)s2)cc1 (stereo not drawn)	inactive
